Patent US11246308B2, “Ice-free preservation of large volume tissue samples for viable, functional tissue banking” (TISSUE TESTING TECHNOLOGIES LLC, priority 2016, dated 2022)

Columns and labels:
[1] = test system: heart valve tissues (pulmonary artery, leaflet and cardiac muscle); assay: alamarBlue metabolic activity of heart valve tissues vitrified in 4 mL of solution (FIG. 1); format: cell-based; conditions: for post-vitrification viability: 0.6M sugar in DP6, VS49 and VS55; for leaflet viability: 4 mL; for leaflet viability / tissue viability: p<0.05; for tissue viability: trehalose and sucrose supplementation of vitrification formulations (VS49, DP6, VS55), compared with no additive controls, N=6
Protocol: (§1) In the following ice-free cryopreservation formulation supplementation experiments, disaccharides (trehalose and sucrose) are added to various vitrification formulations (VS49, DP6, and VS55) in the amounts shown in FIG. 1 and compared to a solution (without trehalose and/or sucrose) to access the effectiveness at inhibiting ice formation in various tissues.
Data shown in % of control VS55 results performed with the final cryoprotectant concentration added at 4° C., N=6, *p<0.05 by ANOVA or #T-test compared with no additive controls.
In this experiment, addition of either 600 mM trehalose or sucrose to VS49, DP6 and VS55 formulations was compared. The tissues were vitrified in 4 mL of solution. Trehalose supplementation increased leaflet viability in VS49 and VS55. Sucrose supplementation increased leaflet viability in all three formulations. […] This led to plans to test DP6 with sugars more thoroughly in later experiments. Repetitive experiments were performed using sucrose supplemented VS55 and obtained outcomes similar to those for supplemented VS55 shown here.
Bonafide excess heart valves or blood vessels were obtained from animals employed in other IACUC approved research studies or from a food processing plant post-mortem. The tissues were dissected, rinsed and placed in sterile cups with ice-cold tissue culture medium containing antibiotics overnight and then allocated for in vitro studies. The heart valve tissues in FIG. 1 each consisted of a piece of tissue consisting of pulmonary artery, leaflet and cardiac muscle. They were separated and individually assayed for viability using an assay that assesses metabolic activity that is described below.
(§2) Tissues were gradually infiltrated with VS55 consisting of 3.10 M DMSO, 3.10M formamide, and 2.21 M propylene glycol in Euro-Collins solution at 4° C. using methods previously described for blood vessel vitrification, a dilution of VS55 to VS49 or DP6 consisting of 3 M DMSO, 3 M propylene glycol. Precooled dilute vitrification solutions (4° C.) are added in five sequential 15-min steps of increasing concentration on ice. The last cryoprotectant concentration with mNPs was added in a final sixth addition step in either precooled −10° C. or 4° C. full strength vitrification solution and kept in a −10° C. bath for 15 minutes or at 4° C. on ice in plastic tubes. The samples were then cooled in two steps, first rapid cooling to −100° C. by placing in a precooled 2-methylbutane bath at −135° C. and then by transfer to vapor phase nitrogen storage for slower cooling to below −135° C. Finally, the samples were stored below −130° C. in vapor phase nitrogen for at least 24 h before testing.
(§3) Warming was performed by either convection warming or nanowarming. Convection warming is a two-stage process including slow warming to −100° C. and then as rapid as possible warming to melting. The slow warming rate is created by taking the sample to the top of the −135° C. freezer and the […] warming rate is generated by placing the plastic container in the mixture of 30% DMSO/H2O at room temperature. After rewarming, the vitrification solution was removed in a stepwise manner on ice to keep the tissues cold and minimize cytotoxicity due to the presence of residual cryoprotectants.
Metabolic Activity—An alamarBlue™ assay will be used to evaluate the metabolic activity of control and treated tissue samples. Tissues were incubated in 2 ml of DMEM+10% FBS culture medium for one hour to equilibrate followed by the addition of 20% AlamarBlue under standard cell culture conditions for 3 hours. AlamarBlue is a non-toxic fluorometric indicator based on detection of metabolic activity. Fluorescence was measured at an excitation wavelength of 544 nm and an emission wavelength of 590 nm. […] Control and experimental tissues were dried at the end of each experiment, weighed, and results expressed as relative fluorescence units (RFU)/mg tissue dry weight.

[2] = ice formation in VS55 supplemented with sugars stored at −80 C (FIG. 7); format: physicochemical; conditions: for sugar concentrations in VS55 that demonstrated ice (white) formation: 24 hours at −80° C.
Protocol: In this experiment 30 mL samples of VS55 with increasing concentrations of sugars were placed in 50 mL plastic tubes and stored in a −80 C mechanical storage freezer for 7 days. The tubes were checked daily for ice formation. […] After one day 0.4 to 0.6M trehalose and 0.5-0.6M sucrose were free of ice, while after 7 days 0.5-0.6M trehalose and 0.6M sucrose groups were free of ice. Lower concentrations of these sugars may still be used for ice-free vitrification but more rapid cooling and warming will be needed because the risk of ice formation will be greater and nanowarming rather than convection warming may be needed. Specifically, FIG. 7 is photograph illustrating the ice formation in VS55 supplemented with sugars at −80° C.: Top left: VS55 with 0-0.6M sucrose at 24 hours; Top right: VS55 with 0-0.6M trehalose at 24 hours. […] Higher concentrations were clear without ice. Bottom left: VS55 with 0-0.6M sucrose at 7 days; and Bottom right: VS55 with 0-0.6M trehalose at 7 days. After a week at −80° C. the highest concentrations of sugars are still free of ice.

[3] = visible ice formation during cooling and rewarming, 1st set of experiments; format: physicochemical; conditions: for visible ice formation: 0.6M sugar in both DP6 and VS49 formulations; for ice formation during cooling and rewarming: in the presence of the sugar, with nanowarming
Protocol: as §1, §2, §3

sugar concentrations in VS55 that demonstrated ice (white) formation [2] [M]	visible ice formation [3]	ice formation during cooling and rewarming [3]	sugar concentrations in VS55 free of ice ([2]; after 7 days at −80 C, 30 mL samples) [M]	SMILES	post-vitrification viability [1]	leaflet viability ([1]; 600 mM trehalose added to VS49 and VS55)	tissue viability [1]	leaflet viability ([1]; 600 mM sucrose added to all three formulations (VS49, DP6, VS55))
0 to 0.6	prevents visible ice formation	no ice formation	–	OC[C@H]1O[C@H](O[C@H]2O[C@H](CO)[C@@H](O)[C@H](O)[C@H]2O)[C@H](O)[C@@H](O)[C@@H]1O [trehalose]	increases	increased	significant increases	–
0 to 0.4	prevents visible ice formation	no ice formation	0.6	OC[C@H]1O[C@@](CO)(O[C@H]2O[C@H](CO)[C@@H](O)[C@H](O)[C@H]2O)[C@@H](O)[C@@H]1O [sucrose]	increases	–	significant increases	increased
